US20120142627A1, “MONOPHOSPHATE PRODRUGS OF DAPD AND ANALOGS THEREOF” (Emory University, priority 2010, published 2012)
Read-outs that look alike come from different tables or passages of the source.

Experiments:
PBM cells = experiment: Intracellular metabolites (DXG-TP, DAPD-TP) in PBM cells; type: in vitro ADME, human; settings: for DXG-TP levels: PBM cells incubated for 4 h at 50 µM, mean and S.D.; for intracellular DXG-TP detected (in words) / intracellular phosphorylated DAPD / DAPD-TP detected (in words): PBM cells, 50 μM, 4 h, 37° C.
Description: Reexamination of the intracellular metabolism of DAPD, which contains a 6-amino group, at 50 μM for 4 h in PBM cells at 37° C. resulted the detection of high levels of DXG-TP in addition to DXG and DXG-MP.
PBM cells were incubated with the corresponding compounds for 4 h […]. The data plotted represent the mean value and S.D. of experiments with PBM cells.

adenosine deaminase = experiment: Adenosine deaminase assay; type: biochemical; settings: 7 minutes, 0.002 units of enzyme, 50 μM, pH 7.4, 25° C.
Description: To determine the propensity for deamination of the 6-substituted-2-amino purine dioxolane monophosphate prodrugs by adenosine deaminase, nucleoside compounds were incubated with the commercially available purified enzyme, and the reaction was followed spectrophotometrically. Reaction conditions were 50 mM potassium phosphate, pH 7.4, with 50 μM nucleoside analog in 0.5 mL at 25° C. Reaction time was 7 minutes with 0.002 units of enzyme and 120 minutes with 0.2 units of enzyme. (The unit definition of adenosine deaminase is one unit will deaminate 1.0 μmol of adenosine to inosine per minute at pH 7.5 at 25° C.) Deoxyadenosine was the positive control which was 59% deaminated under the given conditions in 7 minutes with 0.002 units of enzyme. Deoxyguanosine was the negative control. Optical density was measured at 265 nm or 285 nm. The difference in optical density between the beginning and the end of the experiment was divided by the extinction coefficient then multiplied by the volume of the reaction to determine the number of mols of substrate transformed into product. Mols of product were divided by mols of substrate equivalent to a 100% complete reaction then multiplied by 100 to obtain percent deamination. The limit of detection was 0.001 optical density units.

human PBM cells = experiment: Cytotoxicity in human PBM cells; type: cell-based
Description: v) Cellular Toxicity Assays: 6-Substituted-2-amino purine dioxolane monophosphate prodrugs were evaluated for their potential toxic effects on P4/R5 cells, MT-2 cells and uninfected PHA-stimulated human PBM cell. Log-phase P4/R5, MT-2, and PHA-stimulated human PBM cells were seeded at 5×10^3 to 5×10^4 cells/well in 96-well cell culture plates containing 10-fold serial dilutions of the test drug. The cultures were incubated for 2-4 days, after which 3-(4,5-dimethylthiazol-2-yl)-2,5-diphenyltetrazolium bromide (MIT) dye solution (Promega, Madison, Wis.) were added to each well and incubated overnight. The reaction was stopped with stop solubilization solution (Promega, Madison, Wis.) and plates were read at a wavelength of 570 nm.

Vero cells = experiment: Cytotoxicity in Vero cells; settings: Chlorocebus sabaeus, read-out: Vero IC50
HIV-1LAI = experiment: Anti-HIV (in PBM cells) assay; type: cell-based; settings: Human immunodeficiency virus 1, PBMC; for EC50: read-out: HIV EC50; for EC90: read-out: HIV EC90
Description: Stock solutions (20-40 mM) of the compounds were prepared in sterile DMSO and then diluted to the desired concentration in growth medium. Cells were infected with the prototype HIV-1LAI at a multiplicity of infection of 0.01. Virus obtained from the cell supernatant was quantified on day 6 after infection by a reverse transcriptase assay using (rA)n.(dT)12-18 as template-primer. The DMSO present in the diluted solution (<0.1%) had no effect on the virus yield. AZT was included as positive control.

[1] = tested on: CEM (human lymphoblastoid) cells; experiment: Cytotoxicity in CEM cells; settings: Lymphoblastoid cell, read-out: CEM IC50
[2] = tested on: PHA-stimulated human PBMCs and CEM cells; settings: cited from earlier work

DXG-TP levels (PBM cells) | SMILES | intracellular DXG-TP detected (in words) (PBM cells) | intracellular phosphorylated DAPD / DAPD-TP detected (in words) (PBM cells) | IC50 (Vero cells) | IC50 [1] | other results
0.55 pmol/10^6 cells | COc1nc(N)nc2c1ncn2C1COC(CO)O1 (centres unmarked) [6-OMe-DXG] |  |  |  |  | 
 | Nc1ncnc2c1ncn2[C@H]1C[C@H](O)[C@@H](CO)O1 [Deoxyadenosine] |  |  |  |  | percent deaminated by adenosine deaminase (adenosine deaminase): 59%
1.75 ± 0.07 pmol/10^6 cells | Nc1nc2c(ncn2[C@H]2CO[C@@H](CO)O2)c(=O)[nH]1 [DXG, (−)-β-D-dioxolane guanine] |  |  |  |  | 
 | CCOC(=O)[C@H](C)NP(=O)(OC[C@@H]1OC[C@H](n2cnc3c(N)nc(N)nc32)O1)Oc1ccccc1 (some centres unmarked) [RS-864] | low levels | very high levels | > 100 µM | > 100 µM | PBM IC50 (printed as % @ 100 μM) (human PBM cells; @ 100 μM): 66.5%; EC50 (HIV-1LAI): 0.24 µM; EC90 (HIV-1LAI): 1.3 µM
 | Nc1nc(N)c2ncn([C@H]3CO[C@@H](CO)O3)c2n1 [DAPD] | high levels | no phosphorylated forms of DAPD were detected | > 100 µM | > 100 µM | IC50 (human PBM cells; Homo sapiens, PBMC, cytotoxicity): > 100 µM; EC50 (HIV-1LAI; human PBM cells): 1 µM; EC90 (HIV-1LAI; human PBM cells): 6.5 µM; DAPD level in PBMCs relative to CEM cells [2]: 27 fold; phosphorylation of DAPD to mono-, di-, or triphosphate forms ([2]; either cell type): No phosphorylation
0.10 pmol/10^6 cells | Nc1nc(Cl)c2ncn(C3COC(CO)O3)c2n1 (centres unmarked) [6-Cl-DXG] |  |  |  |  | 
